Results as given in patent EP4803513A1, “SUBSTITUTED QUINAZOLINE COMPOUND, PREPARATION METHOD THEREFOR, PHARMACEUTICAL COMBINATION THEREOF, AND USE THEREOF” (Hongyun Biotech Co., Ltd., priority 2023, dated 2025).

Tests used:
WT-BaF3 cells = assay: Cell antiproliferative activity assay (CCK-8), WT-BaF3 (broad-spectrum cytotoxicity); format: cell-based; conditions: 72 h; WT-BaF3 cells (IL-3 supplemented), CCK-8, 3 days incubation
Description: (§1) The activity of compounds against BRK kinase can be evaluated by their inhibition of the growth of the BRK kinase-stably transfected BaF3 cell line (BRK-BaF3) and wild-type BaF3 cells (WT-BaF3). […] The larger the ratio of the half-maximal growth inhibitory concentration (IC50) of a compound between WT-BaF3 and BRK-BaF3 cells, the better the selectivity of the compound.
(§2) BRK-BaF3, WT-BaF3, WEHI cell line, and breast cancer cell line T47D were cultured using RPMI 1640 Basal medium or DMEM (Dulbecco's Modified Eagle Medium) (Shanghai Peiyuan Biotechnology, L220KJ), supplemented with 10% FBS (Gibco, REF 10099-141C) and 1% P/S (Shanghai Peiyuan Biotechnology, S110JV), in an incubator (Thermo 3020) at 37°C with 5% CO2. Cell viability was above 95%. Cells were passaged at a 3:1 ratio every 3-4 days. For WT-BaF3 cells, WEHI cells were first cultured, and their culture supernatant was filtered through a 0.22 µm filter. This supernatant was added at 10% to the regular culture medium to supplement IL-3 required for WT-BaF3 cell proliferation, which served as the culture medium for WT-BaF3. For testing, cells were first collected and counted, then prepared into a cell suspension at 100,000 cells/mL and plated at 100 µL per well. Drug concentrations started from 10 µM and were serially diluted 3:1. After incubation for 3 days, 20 µL of CCK-8 detection reagent (Targetmol C005) was added to each well. After incubation for 2-4 hours, OD450 was measured using a microplate reader (Varioskan LUX, Thermo Scientific). After subtracting the blank background, the curve was fitted and the IC50 was calculated using XLfit software.

BRK-BaF3 cells = assay: Cell antiproliferative activity assay (CCK-8), BRK-BaF3; format: cell-based; conditions: 72 h, CCK-8, 3 days incubation
Description: as §1, §2

| SMILES | IC50 (WT-BaF3 cells) [nM] | IC50 (BRK-BaF3 cells) [nM] |
| --- | --- | --- |
| Cc1nn(CCO)cc1Nc1ncc2cc(-c3ccccn3)cc(C(C)C)c2n1 [I-1] | 500 to 2500 | ≤ 20 |
| Cc1nn(CCO)cc1Nc1ncc2cc(-c3ncccc3F)cc(C(C)C)c2n1 [I-2] | > 2500 | ≤ 20 |
| Cc1cccnc1-c1cc(C(C)C)c2nc(Nc3cn(CCO)nc3C)ncc2c1 [I-3] | > 2500 | ≤ 20 |
| COc1cccnc1-c1cc(C(C)C)c2nc(Nc3cn(CCO)nc3C)ncc2c1 [I-4] | > 2500 | ≤ 20 |
| Cc1nn(CCO)cc1Nc1ncc2cc(-c3ccccn3)cc(C(F)(F)F)c2n1 [I-9] | > 2500 | ≤ 20 |
| Cc1nn(CCO)cc1Nc1ncc2cc(-c3ccncc3)cc(C(C)C)c2n1 [I-10] | 500 to 2500 | 20 to 100 |
| Cc1nn(CCO)cc1Nc1ncc2cc(-c3ccncc3F)cc(C(C)C)c2n1 [I-11] | 500 to 2500 | ≤ 20 |
| Cc1cnccc1-c1cc(C(C)C)c2nc(Nc3cn(CCO)nc3C)ncc2c1 [I-12] | 500 to 2500 | ≤ 20 |
| COc1cnccc1-c1cc(C(C)C)c2nc(Nc3cn(CCO)nc3C)ncc2c1 [I-13] | > 2500 | ≤ 20 |
| Cc1cnc(F)cc1-c1cc(C(C)C)c2nc(Nc3cn(CCO)nc3C)ncc2c1 [I-17] | 500 to 2500 | ≤ 20 |
| COc1ncccc1-c1cc(C(C)C)c2nc(Nc3cn(CCO)nc3C)ncc2c1 [I-25] | > 2500 | ≤ 20 |
| Cc1nn(CCO)cc1Nc1ncc2cc(-c3cccnc3C#N)cc(C(C)C)c2n1 [I-26] | > 2500 | ≤ 20 |
| Cc1nn(CCO)cc1Nc1ncc2cc(-c3cccnc3C3CC3)cc(C(C)C)c2n1 [I-28] | 500 to 2500 | 20 to 100 |
| Cc1nn(CCO)cc1Nc1ncc2cc(-c3cnccc3F)cc(C(C)C)c2n1 [I-31] | > 2500 | ≤ 20 |
| COc1ccncc1-c1cc(C(C)C)c2nc(Nc3cn(CCO)nc3C)ncc2c1 [I-33] | > 2500 | ≤ 20 |
| Cc1nn(CCO)cc1Nc1ncc2cc(-c3cnccc3C#N)cc(C(C)C)c2n1 [I-34] | > 2500 | ≤ 20 |
| Cc1nn(CCO)cc1Nc1ncc2cc(-c3cc(F)cnc3F)cc(C(C)C)c2n1 [I-40] | > 2500 | ≤ 20 |

| SMILES | IC50 (WT-BaF3 cells) [nM] | IC50 (BRK-BaF3 cells) [nM] |
| --- | --- | --- |
| Cc1nn(CCO)cc1Nc1ncc2cc(-c3cc(C#N)cnc3C)cc(C(C)C)c2n1 [I-42] | > 2500 | ≤ 20 |
| Cc1nn(CCO)cc1Nc1ncc2cc(-c3c(Cl)ccnc3Cl)cc(C(C)C)c2n1 [I-44] | 500 to 2500 | ≤ 20 |
| Cc1nn(CCO)cc1Nc1ncc2cc(-c3c(F)ccnc3Cl)cc(C(C)C)c2n1 [I-45] | > 2500 | ≤ 20 |
| Cc1ccnc(C)c1-c1cc(C(C)C)c2nc(Nc3cn(CCO)nc3C)ncc2c1 [I-47] | 500 to 2500 | ≤ 20 |
| Cc1nn(CCO)cc1Nc1ncc2cc(-c3c(Cl)ccnc3N)cc(C(C)C)c2n1 [I-49] | > 2500 | ≤ 20 |
| Cc1ccnc(N)c1-c1cc(C(C)C)c2nc(Nc3cn(CCO)nc3C)ncc2c1 [I-50] | > 2500 | ≤ 20 |
| Cc1ncc(F)cc1-c1cc(C(C)C)c2nc(Nc3cnn(CCO)c3)ncc2c1 [I-52] | > 2500 | ≤ 20 |
| Cc1ncccc1-c1cc(C(C)C)c2nc(Nc3cnn(CCO)c3C)ncc2c1 [I-66] | 500 to 2500 | 20 to 100 |
| Cc1nn(CCO)cc1Nc1ncc2cc(-c3cccnc3)cc(C3CC3)c2n1 [I-72] | 100 to 500 | ≤ 20 |
| Cc1nn(CCO)cc1Nc1ncc2cc(-c3cc(F)cnc3C)cc(C3CC3)c2n1 [I-74] | 500 to 2500 | ≤ 20 |
| Cc1nn(CCO)cc1Nc1ncc2cc(-c3cccnc3)cc(C(F)(F)F)c2n1 [I-75] | > 2500 | ≤ 20 |
| Cc1nn(CCO)cc1Nc1ncc2cc(-c3cccnc3C)cc(C(F)(F)F)c2n1 [I-76] | > 2500 | ≤ 20 |
| Cc1ccnc(C)c1-c1cc(C(F)(F)F)c2nc(Nc3cn(CCO)nc3C)ncc2c1 [I-77] | 500 to 2500 | ≤ 20 |
| Cc1nn(CCO)cc1Nc1ncc2cc(-c3nccnc3F)cc(C(C)C)c2n1 [I-79] | 500 to 2500 | ≤ 20 |
| COc1nccnc1-c1cc(C(C)C)c2nc(Nc3cn(CCO)nc3C)ncc2c1 [I-82] | 500 to 2500 | 20 to 100 |
| Cc1nn(CCO)cc1Nc1ncc2cc(-c3nccnc3N)cc(C(C)C)c2n1 [I-84] | > 2500 | ≤ 20 |
| Cc1cncc(-c2cc(C(C)C)c3nc(Nc4cn(CCO)nc4C)ncc3c2)n1 [I-90] | 500 to 2500 | ≤ 20 |
